Test results from patent US6737383B1, “Herbicidal oxadiazolidines” (priority 1999, dated 2004).

Assays:
surinam grass = test: Test B pre/postemergence surinam grass; format: in vivo, Brachiaria decumbens
How it was run: (§1)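 Herbicidal effect was estimated by eye on a ten-point control scale after plants spent twelve to sixteen days in a greenhouse following soil or foliar treatment. Foliar sprays targeted plants at one to four leaves; all doses were formulated in a non-phytotoxic solvent with surfactant.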

rice = test: Test B flood test rice; format: in vivo, Oryza sativa
How it was run: (§2)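 Plants were grown to the 2-leaf stage before treatment with test chemical, then held in a greenhouse for twelve to sixteen days. Injury was visually rated against untreated controls on a 0–10 scale, where 0 is no effect and 10 is complete control.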

sugar beet = test: Test B pre/postemergence sugar beet; format: in vivo, Beta vulgaris
How it was run: as §1

morningglory = test: Test B pre/postemergence morningglory; format: in vivo, Ipomoea hederacea
How it was run: as §1

cocklebur = test: Test B pre/postemergence cocklebur; format: in vivo, Xanthium strumarium
How it was run: as §1

corn = test: Test B pre/postemergence corn; format: in vivo, Zea mays
How it was run: as §1

wheat = test: Test B pre/postemergence wheat; format: in vivo, Triticum aestivum
How it was run: as §1

giant foxtail = test: Test B pre/postemergence giant foxtail; format: in vivo, Setaria faberii
How it was run: as §1

smallflower flatsedge = test: Test B flood test smallflower flatsedge; format: in vivo, Cyperus difformis
How it was run: as §2

duck salad = test: Test B flood test duck salad; format: in vivo, Heteranthera limosa
How it was run: as §2

velvetleaf = test: Test B pre/postemergence velvetleaf; format: in vivo, Abutilon theophrasti
How it was run: as §1

blackgrass = test: Test B pre/postemergence blackgrass; format: in vivo, Alopecurus myosuroides
How it was run: as §1

wild oat = test: Test B pre/postemergence wild oat; format: in vivo, Avena fatua
How it was run: as §1

rape = test: Test B pre/postemergence rape; format: in vivo, Brassica napus
How it was run: as §1

bamyardgrass = test: Test B flood test barnyardgrass; format: in vivo, Echinochloa crus-galli
How it was run: as §2

soybean = test: Test B pre/postemergence soybean; format: in vivo, Glycine max
How it was run: as §1

pigweed = test: Test B pre/postemergence pigweed; format: in vivo, Amaranthus retroflexus
How it was run: as §1

crabgrass = test: Test B pre/postemergence crabgrass; format: in vivo, Digitaria sanguinalis
How it was run: as §1

bedstraw = test: Test B pre/postemergence bedstraw; format: in vivo, Galium aparine
How it was run: as §1

purple nutsedge = test: Test B pre/postemergence purple nutsedge; format: in vivo, Cyperus rotundus
How it was run: as §1

[1] = Preemergence, Rate 62 g/ha, scale of 0 to 10 where 0 is no effect and 10 is complete control
[2] = Preemergence, Rate 250 g/ha, scale of 0 to 10 where 0 is no effect and 10 is complete control
[3] = Preemergence, Rate 500 g/ha, scale of 0 to 10 where 0 is no effect and 10 is complete control
[4] = Rate 62 g/ha, Postemergence, scale of 0 to 10 where 0 is no effect and 10 is complete control
[5] = Rate 125 g/ha, Preemergence, scale of 0 to 10 where 0 is no effect and 10 is complete control
[6] = Rate 500 g/ha, Postemergence, scale 0 to 10, 0 no effect, 10 complete control
[7] = Rate 62 g/ha, headed Pre-emergence (flood test species), scale 0 to 10 (0 no effect, 10 complete control)
[8] = Rate 125 g/ha, Pre-emergence, flood test species, scale 0 to 10 where 0 is no effect and 10 is complete control
[9] = Rate 250 g/ha, Pre-emergence, flood-test species, scale 0 to 10, 0 is no effect, 10 is complete control
[10] = Rate 500 g/ha, Pre-emergence, flood test species, scale 0 to 10 (0 no effect, 10 complete control)
[11] = Rate 125 g/ha, Postemergence, scale 0 to 10

## CCCCCC#CCn1c(=O)on(C(=O)N(c2ccc(F)cc2)C(C)C)c1=O [Compound 254]
Surinam grass; [1]
  B. signalgrass plant response rating: 0
Surinam grass; [2]
  B. signalgrass plant response rating: 0
Surinam grass; [3]
  Plant response rating, B. signalgrass: 0
Surinam grass; [4]
  B. signalgrass plant response rating: 0
Surinam grass; Rate 125 g/ha, Postemergence, scale 0 (no effect) to 10 (complete control)
  B. signalgrass plant response rating: 0
Surinam grass; [5]
  B. signalgrass plant response rating: 0
Surinam grass; Rate 250 g/ha, Postemergence
  Plant response rating (0 to 10; 0 is no effect, 10 is complete control), B. signalgrass: 0
Surinam grass; [6]
  B. signalgrass plant response rating: 0
rice; [7]
  Rice plant response rating: 0
rice; [8]
  Rice plant response rating: 0
rice; [9]
  Rice plant response rating: 0
rice; [10]
  Rice plant response rating: 0
Sugar beet; [1]
  Sugarbeets plant response rating: 0
Sugar beet; [2]
  Sugarbeets plant response rating: 2
Sugar beet; [3]
  Plant response rating, Sugarbeets: 6
Sugar beet; [5]
  Sugarbeets plant response rating: 2
Sugar beet; [6]
  Sugarbeets plant response rating: 7
morningglory; [1]
  Morningglory plant response rating: 0
morningglory; [2]
  Morningglory plant response rating: 0
morningglory; [3]
  Plant response rating, Morningglory: 0
morningglory; [5]
  Morningglory plant response rating: 0
morningglory; Rate 250 g/ha, Postemergence
  Plant response rating (0 to 10; 0 is no effect, 10 is complete control), Morningglory: 9
morningglory; [6]
  Morningglory plant response rating: 9
cocklebur; [1]
  Cocklebur plant response rating: 0
cocklebur; [2]
  Cocklebur plant response rating: 0
cocklebur; [3]
  Plant response rating, Cocklebur: 0
cocklebur; [4]
  Cocklebur plant response rating: 0
cocklebur; [11]
  Cocklebur plant response rating: 0
cocklebur; [5]
  Cocklebur plant response rating: 0
cocklebur; Rate 250 g/ha, Postemergence
  Plant response rating (0 to 10; 0 is no effect, 10 is complete control), Cocklebur: 0
cocklebur; [6]
  Cocklebur plant response rating: 0
corn; [1]
  Corn plant response rating: 0
corn; [2]
  Corn plant response rating: 0
corn; [3]
  Plant response rating, Corn: 0
corn; [4]
  Corn plant response rating: 0
corn; [11]
  Corn plant response rating: 0
corn; [5]
  Corn plant response rating: 0
corn; Rate 250 g/ha, Postemergence
  Plant response rating (0 to 10; 0 is no effect, 10 is complete control), Corn: 0
corn; [6]
  Corn plant response rating: 0
wheat; [1]
  Wheat plant response rating: 0
wheat; [2]
  Wheat plant response rating: 0
wheat; [3]
  Plant response rating, Wheat: 0
wheat; [5]
  Wheat plant response rating: 0
wheat; [6]
  Wheat plant response rating: 0
Giant foxtail; [1]
  Giant foxtail plant response rating: 0
Giant foxtail; [2]
  Giant foxtail plant response rating: 6
Giant foxtail; [3]
  Plant response rating, Giant foxtail: 10
Giant foxtail; [5]
  Giant foxtail plant response rating: 3
Giant foxtail; Rate 250 g/ha, Postemergence
  Plant response rating (0 to 10; 0 is no effect, 10 is complete control), Giant foxtail: 0
Giant foxtail; [6]
  Giant foxtail plant response rating: 0
Smallflower flatsedge; [7]
  S. Flatsedge plant response rating: 0
Smallflower flatsedge; [8]
  S. Flatsedge plant response rating: 0
Smallflower flatsedge; [9]
  S. Flatsedge plant response rating: 0
Smallflower flatsedge; [10]
  S. Flatsedge plant response rating: 0
Duck salad; [7]
  Ducksalad plant response rating: 0
Duck salad; [8]
  Ducksalad plant response rating: 0
Duck salad; [9]
  Ducksalad plant response rating: 0
Duck salad; [10]
  Ducksalad plant response rating: 0
velvetleaf; [1]
  Velvetleaf plant response rating: 0
velvetleaf; [2]
  Velvetleaf plant response rating: 0
velvetleaf; [3]
  Plant response rating, Velvetleaf: 0
velvetleaf; [5]
  Velvetleaf plant response rating: 0
velvetleaf; [6]
  Velvetleaf plant response rating: 2
blackgrass; [1]
  Blackgrass plant response rating: 0
blackgrass; [2]
  Blackgrass plant response rating: 0
blackgrass; [3]
  Plant response rating, Blackgrass: 4
blackgrass; [4]
  Blackgrass plant response rating: 0
blackgrass; [11]
  Blackgrass plant response rating: 0
blackgrass; [5]
  Blackgrass plant response rating: 0
blackgrass; Rate 250 g/ha, Postemergence
  Plant response rating (0 to 10; 0 is no effect, 10 is complete control), Blackgrass: 0
blackgrass; [6]
  Blackgrass plant response rating: 0
Wild oat; [1]
  Wild oats plant response rating: 0
Wild oat; [2]
  Wild oats plant response rating: 0
Wild oat; [3]
  Plant response rating, Wild oats: 2
Wild oat; [5]
  Wild oats plant response rating: 0
Wild oat; [6]
  Wild oats plant response rating: 0
rape; [1]
  Rape plant response rating: 0
rape; [2]
  Rape plant response rating: 2
rape; [3]
  Plant response rating, Rape: 6
rape; [5]
  Rape plant response rating: 0
rape; Rate 250 g/ha, Postemergence
  Plant response rating (0 to 10; 0 is no effect, 10 is complete control), Rape: 2
rape; [6]
  Rape plant response rating: 2
bamyardgrass; [7]
  Barnyardgrass plant response rating: 0
bamyardgrass; [8]
  Barnyardgrass plant response rating: 0
bamyardgrass; [9]
  Barnyardgrass plant response rating: 0
bamyardgrass; [10]
  Barnyardgrass plant response rating: 0
soybean; [1]
  Soybean plant response rating: 0
soybean; [2]
  Soybean plant response rating: 0
soybean; [3]
  Plant response rating, Soybean: 0
soybean; [5]
  Soybean plant response rating: 0
soybean; [6]
  Soybean plant response rating: 2
pigweed; [1]
  Redroot pigweed plant response rating: 0
pigweed; [2]
  Redroot pigweed plant response rating: 0
pigweed; [3]
  Plant response rating, Redroot pigweed: 0
pigweed; [5]
  Redroot pigweed plant response rating: 0
pigweed; Rate 250 g/ha, Postemergence
  Plant response rating (0 to 10; 0 is no effect, 10 is complete control), Redroot pigweed: 3
pigweed; [6]
  Redroot pigweed plant response rating: 6
crabgrass; [1]
  Crabgrass plant response rating: 0
crabgrass; [2]
  Crabgrass plant response rating: 0
crabgrass; [3]
  Plant response rating, Crabgrass: 3
crabgrass; [5]
  Crabgrass plant response rating: 0
crabgrass; Rate 250 g/ha, Postemergence
  Plant response rating (0 to 10; 0 is no effect, 10 is complete control), Crabgrass: 0
crabgrass; [6]
  Crabgrass plant response rating: 0
bedstraw; [1]
  Bedstraw plant response rating: 0
bedstraw; [2]
  Bedstraw plant response rating: 0
bedstraw; [3]
  Plant response rating, Bedstraw: 0
bedstraw; [4]
  Bedstraw plant response rating: 0
bedstraw; [11]
  Bedstraw plant response rating: 4
bedstraw; [5]
  Bedstraw plant response rating: 0
bedstraw; Rate 250 g/ha, Postemergence
  Plant response rating (0 to 10; 0 is no effect, 10 is complete control), Bedstraw: 4
bedstraw; [6]
  Bedstraw plant response rating: 4
Purple nutsedge; [1]
  Nutsedge plant response rating: 0
Purple nutsedge; [2]
  Nutsedge plant response rating: 0
Purple nutsedge; [3]
  Plant response rating, Nutsedge: 0
Purple nutsedge; [5]
  Nutsedge plant response rating: 0
Purple nutsedge; Rate 250 g/ha, Postemergence
  Plant response rating (0 to 10; 0 is no effect, 10 is complete control), Nutsedge: 0
Purple nutsedge; [6]
  Nutsedge plant response rating: 0
